According to ChEMBL document CHEMBL1156829 (Proc Natl Acad Sci U S A, 2008):

What was measured:
[1] = NOVARTIS: Cytotoxicity against human hepatocellular carcinoma cell line (Huh7); assay type: toxicity, cell-based, Huh-7; conditions: Huh7 cells (hepatocellular carcinoma cell line)
[2] = tested on: Plasmodium falciparum; experiment: NOVARTIS: Inhibition of Plasmodium falciparum 3D7 (drug-susceptible) proliferation in erythrocyte-based infection assay; assay type: functional, organism-based; conditions: Plasmodium falciparum, 3D7
[3] = tested on: Plasmodium falciparum; experiment: NOVARTIS: Inhibition of Plasmodium falciparum W2 (drug-resistant) proliferation in erythrocyte-based infection assay; assay type: functional, organism-based; conditions: Plasmodium falciparum, W2; read-out: EC50

Row | SMILES | CC50 [1] [nM] | EC50 [2] [nM] | EC50 [3] [nM]
1 | CCN1/C(=C/c2sc3ccc(Br)cc3[n+]2CC)C=Cc2ccccc21 | > 10000 | 645 | 1080
2 | COc1ccc(C=NNc2nc(O)cc(-c3ccccc3)n2)cc1OC | > 10000 | 632 | > 1100
3 | COC(=O)c1ccc(C(=O)Nc2ccc(-c3nc4cc(NC(=O)c5ccc(C(=O)OC)cc5)ccc4[nH]3)cc2)cc1 | > 10000 | 855 | 1090
4 | CCOC(=O)c1sc(NC(=O)CSc2nnc(CNC(=O)c3ccco3)n2-c2ccc(F)cc2)c(C(=O)OCC)c1C | > 10000 | > 1250 | > 1060
5 | CC(C)OC(=O)NC(Nc1ccccc1)C(Cl)(Cl)Cl (configuration not stated) | > 10000 | > 1080 | > 1080
6 | COc1ccc(Cn2c(=S)[nH]c3ccsc3c2=O)cc1 | > 10000 | > 1430 | 1100
7 | CN(C)c1ccc(/C=C2\C(=O)NC(=O)N(Cc3ccccc3Cl)C2=O)cc1 | > 10000 | > 1250 | 1110
8 | CC[n+]1c(C=C2C=CN(c3ccc(Cl)cc3)C=C2)ccc2ccccc21 | > 10000 | 725 | 1090
9 | CCC(C)NC(=O)CSc1nnc(-c2cccnc2)n1-c1ccc(Cl)cc1 (configuration not stated) | > 10000 | > 1520 | > 1090
10 | CN(CCCNc1ccnc2cc(Cl)ccc12)C(=O)c1cccc(C(F)(F)F)c1 | > 2550 | 85.1 | 278
11 | Cc1ccc(CNC(=O)c2cc(=O)[nH]c3ccc(S(=O)(=O)N4CCOCC4)cc23)cc1 | > 10000 | 1430 | > 1090
12 | COc1cc(NC(C)CCCN(Cc2ccc(OC)c(OC)c2)C(=O)CC(C)CC(C)(C)C)c2ncccc2c1 (configuration not stated) | 5890 | 1040 | 640
13 | CN1CCN(C(c2ccco2)c2sc3ncnn3c2O)CC1 (configuration not stated) | > 10000 | > 1250 | 1080
14 | CN(C)c1ccc(NC(=O)c2cccnc2C(=O)O)cc1 | 7840 | 320 | 841
15 | CCCCCN(C(=O)c1ccc(C)cc1)C(CC)c1nc2ccccc2c(=O)n1-c1ccccc1OC (configuration not stated) | > 10000 | 893 | 1070
16 | O=C(NCCCCNc1ccnc2cc(Cl)ccc12)c1ccco1 | > 13100 | 723 | 1400
17 | COc1ccccc1N(CC(=O)N1CCCCC1)S(=O)(=O)c1ccccc1 | > 10000 | > 1250 | > 1070
18 | COc1cccc2cc(-c3csc(NC(=O)CCC(=O)NC4CCCC4)n3)c(=O)oc12 | > 10000 | > 1250 | > 1070
19 | COc1cc(/C=C/c2nc(O)nc(O)c2[N+](=O)[O-])cc(Br)c1O | > 9110 | > 1250 | > 987
20 | CCCCCCN(C(=O)Nc1cccc(C#N)c1)C(CC)c1nc2ccccc2c(=O)n1CCC(=O)OC (configuration not stated) | > 10000 | 979 | 1070
21 | Cc1ccc(CN2C[C@H](n3cnnn3)C[C@H]2C(=O)NCCc2cccc(Cl)c2)c(C)c1 | > 10400 | 1320 | 1120
22 | COc1ccc2c(c1OC)C(=O)N(c1ncc(C)s1)C2 | > 10000 | > 1250 | > 1080
23 | CCCCCCOc1ccc(C(C)=NNC2=NCCN2)cc1[N+](=O)[O-] | 7320 | 228 | 791
24 | COc1cc(C=NNc2nc3cc(Cl)ccc3[nH]2)cc(OC)c1OC | > 10000 | 904 | 1080
25 | COc1ccccc1NC(=O)C(=O)NCCc1ccc(OC)c(OC)c1 | > 100000 | > 10300 | > 10800
26 | NC(=O)CSc1nnc2ccc(-c3ccc4c(c3)OCO4)nn12 | > 10000 | > 1250 | > 1110
27 | CCN(CC)CCCC(C)N(Cc1cccc(OCc2ccccc2)c1)C(=O)NCc1ccccc1 (configuration not stated) | > 10000 | > 1250 | > 1100

Row | SMILES | CC50 [1] [nM] | EC50 [2] [nM] | EC50 [3] [nM]
28 | CCCOc1ccc(Cc2c(C)nc3ccc(Br)cc3c2O)cc1 | > 10000 | 1030 | 1100
29 | OC1(c2ccc(Br)cc2)CCN(C2CCN(CCc3ccccc3)CC2)CC1 | 4770 | 136 | 527
30 | Cc1oc2c(c1C(=O)N1CCCC1)C(=O)c1ccccc1C2=O | 9860 | 2370 | 1050
31 | CC(=O)Nc1cccc(N(C(=O)C2COc3ccccc3O2)C(C(=O)NC2CCCCC2)c2ccc(O)cc2)c1 (configuration not stated) | > 10000 | > 1250 | > 1100
32 | CCc1n(C)c2ccccc2[n+]1CC(=O)c1ccc(Br)cc1 | > 10000 | 1660 | 1100
33 | O=C(COc1ccc(Cl)cc1)NCc1ccc(CNc2noc3ccccc23)cc1 | 66200 | 3100 | 7290
34 | Cc1ccc(-c2ccc(C#N)c(OCC(=O)NCCc3ccccc3)n2)c(C)c1 | > 10000 | > 1250 | > 1060
35 | O=C(c1cc([N+](=O)[O-])cc([N+](=O)[O-])c1)N1CCN(c2cccc(C(F)(F)F)c2)CC1 | > 10000 | 1180 | 1100
36 | Cn1cc([N+](=O)[O-])c(C(=O)NN=Cc2c[nH]c3ccccc23)n1 | > 10000 | 1940 | 1100
37 | O=C(CCC1CCCN(C(=O)c2ccsc2)C1)N1CCN(c2ccccn2)CC1 (configuration not stated) | > 10000 | > 1250 | > 1100
38 | CN1CCCC(CNC(=O)c2cnn(-c3ncc4c(n3)-c3ccccc3SC4)c2C2CC2)C1 (configuration not stated) | > 10000 | 976 | 1100
39 | Cc1cccc(NC(=O)c2ccc3ccccc3n2)n1 | > 10000 | > 547 | > 1090
40 | Cc1ccccc1NC(c1cccc(Cl)c1)c1nnnn1C1CCCCC1 (configuration not stated) | > 10000 | > 1720 | > 1070
41 | COc1ccccc1C(c1c(C)n[nH]c1O)c1c(C)n[nH]c1O | > 10000 | > 1250 | > 1100
42 | CCOC(=O)c1cnc2c(C)c3[nH]c(C)c(C)c3cc2c1O | > 10000 | > 1310 | 1070
43 | COc1ccc(/C=C2\SC(=N)N(c3ccc4c(c3)OCO4)C2=O)cc1OC | > 10000 | > 1720 | > 1060
44 | COc1cc2c3cc1Oc1c(OC)c(OC)cc4c1C(Cc1ccc(O)c(c1)Oc1ccc(cc1)CC3N(C)CC2)N(C)CC4 (configuration not stated) | > 10000 | 997 | 1060
45 | C=CCSc1nn2c(=O)c(C)nnc2s1 | > 10000 | > 1620 | 1080
46 | CC(C)(C)NC(=O)C(c1cccs1)N(CCCN1CCOCC1)C(=O)c1ccc(-c2ccccc2)[nH]1 (configuration not stated) | > 10000 | 1230 | 1110
47 | CCOC(=O)N1CCC(NC(=O)CSCc2nc(-c3cccc(OC)c3)oc2C)CC1 | > 10000 | > 1250 | > 1080
48 | O=C(/C=C/c1ccc(Br)cc1)NC(=O)c1ccccc1O | > 10000 | > 1250 | 1090
49 | CCOc1ccc(-c2cn3c([n+]2Cc2ccccc2)SCCC3)cc1 | > 10000 | 648 | 1090
50 | Cc1cc(-c2cnc(N3CCCC3)nc2C2CCN(Cc3cccnc3)CC2)on1 | > 10000 | 190 | > 1090
51 | O=[N+]([O-])c1cc([N+](=O)[O-])c2cccnc2c1Nc1cccc2cccnc12 | 59900 | 8040 | 6440
52 | CCN(CC)CCCC(C)NC(=O)CSc1nc2ccccc2c(=O)n1-c1cccc(Cl)c1 (configuration not stated) | > 10000 | > 1250 | > 1070
53 | COCCCNC(=O)/C=C/c1ccc(C(C)C)cc1 | > 13500 | 1050 | 1490
54 | N#Cc1c(NC(=O)COc2ccc(F)cc2F)sc2c1CCC2 | > 10000 | > 1250 | > 1070
